Measurements published in patent publication US11001802B2, “Surface of a vessel with polystyrene, nitrogen, oxygen and a static sessile contact angle for attachment and cultivation of cells” (Nunc A/S, priority 2008, dated 2021).

Legend:
human ES cell line H9 = assay: Attachment and colony formation of H9 human ES cells on surface modified plates with Rho kinase inhibitors (crystal violet, image analysis); format: cell-based; conditions: H9 on surface modified plates 2, 3, 4 and 13; crystal violet; Y-27632 at 10 μM
Procedure: Human ES cells of the line H9, at passage 40 were maintained in MEF conditioned media on Nunclon Delta™ plates treated with a 1:30 dilution of growth factor reduced Matrigel™, prior to study. Cells were dissociated from the surface for passage by 1 mg/ml collagenase dissociation or by manual scraping.
These cells were then seeded onto surface modified plates 2, 3, 4 and 13 (12-well format) in the presence of increasing amounts one of the following Rho Kinase inhibitors: Y-27632 (from Sigma, St. Louis, Mo. or EMD, San Diego, Calif.), Fasudil (Sigma), or Hydroxyfasudil (Sigma), and maintained for 3 days, each day replacing the media and compound. At the end of day three, media was removed and the plates were stained with Crystal Violet (0.5% in water) to visualize colonies.
It was attempted to determine the optimal dose of Y-27632 to promote cell binding, by treating cells with a range of plating concentrations of Y-27632 for the first day of culture. After the first day in culture cells were treated on subsequent days with a 10 μM concentration of Y-27632. It was observed that the maximal concentration to stimulate attachment and growth of ES cells was 10 μM (FIG. 12) and that this occurred on surface modified plates 2, 3, 4, 13 and CellBIND™ (Corning, Corning, N.Y.).
The effect of treating the cells continuously with a single dose of Y-27632 on attachment and growth was also tested. The cells were dosed with 0, 1, 4, or 10 μM Y-27632 for 4 days. Some binding was observed on surface modified plates without treatment (0 μM), however the optimal concentration to stimulate attachment and growth of ES cells was 10 μM Y-27632 (Table 4) on surface modified plates 2, 3, 4, 13.

HEK293 cells = assay: HEK293 attachment and growth, culture confluence by IncuCyte Plus (Examples 20, 21); format: cell-based, human
Procedure: HEK293 cells were maintained in EMEM (Lonza) containing 10% FBS (Lonza). Cells were passaged at 70-80% confluence using Trypsin/EDTA for dissociation, and seeded at c 2.0×10^4 cells/cm^2 in 75-cm^2 flasks with Nunclon Delta™ surface (Thermo Fisher Scientific, Roskilde, Denmark).
EMEM (500 μl) supplemented with 10% FBS containing 1.0, 5.0, 10, 15 or 20 μM Y-27632 (Sigma Chemical Co.), or 0.4, 1.2, 1.6, 2.4 or 2.8 μM H-1152 (Calbiochem, EMD Chemicals Inc., Darmstadt, Germany) was dispensed in Multidish 24-well plates with either Surface 4 or a non-treated (but gamma irradiated; 25 kGy) polystyrene surface. Another 500 μl of EMEM supplemented with 10% FBS and containing HEK293 cells were added to the wells (2.0×10^4 cells/cm^2). The cultures were placed in an IncuCyte™ Plus (Essen Instruments, Michigan, USA) and incubated at 37° C. in a humidified atmosphere of 5% CO2 in air. The IncuCyte™ Plus is an automated imaging platform, configured to fit inside a CO2 incubator, and designed to provide kinetic, non-invasive live cell imaging by acquiring phase contrast images of the cells at user-defined times and locations within the cultures. The primary metric of the instrument is culture confluence, that is, the fraction of the surface that is covered by cells. The HEK293 cells were incubated for 72 hours without manipulations, and images were collected every two hours at 9 positions in triplicate cultures. Culture confluence was determined using the IncuCyte™ Plus software (v. 3.4.1.25966).
EMEM (1.0 ml) supplemented with 10% FBS containing 0.4, 0.8, 1.2, 1.6, 2.0, 2.4 or 2.8 μM H-1152 was dispensed in Multidish 12-well plates with Surface 4. Another 1.0 ml of EMEM supplemented with […] and containing HEK293 cells were added to the wells (4.0×10^4 cells/cm^2). The cultures were placed in an IncuCyte™ Plus, and incubated at 37° C. in a humidified atmosphere of 5% CO2 in air for 42 hours (images were collected every 6 hours). One ml of culture medium was then removed by pipetting, and 1.0 ml EMEM supplemented with 10% FBS containing 0.2, 0.4, 0.6, 0.8, 1.0, 1.2 and 1.4 μM H-1152 was added. The cultures were placed in the IncuCyte™ Plus again, and images were collected every hour over the following 25 hours. Images were collected at 9 positions in triplicate cultures, and culture confluence was determined using the IncuCyte™ Plus software. Images from the IncuCyte™ Plus collected at specific positions in HEK293 cell cultures grown in the absence or presence of H-1152 (0.6 μM) was retrieved and presented as phase-contrast micrographs for the comparison of HEK293 culture morphology at the following time points: start of incubation (0 hours), just before medium change (42 hours), 1 hour after the medium change (43 hours), and, finally, after 52 hours of incubation.

SMILES	attachment of ES cell colonies by day three (human ES cell line H9)	effect of change of 50% of the medium after 42 hours on culture confluence (HEK293 cells; Surface 4, 0.2 μM or 0.4 μM H-1152)	effect of change of 50% of the medium after 42 hours on culture confluence (HEK293 cells; Surface 4, 0.6 μM, 0.8 μM or 1.4 μM H-1152)	attachment and growth of HEK293 cells (HEK293 cells; Surface 4, increasing concentration)	growth and attachment of HEK293 cells (HEK293 cells; non-treated polystyrene surface, 10 μM Y-27632, 0.6-1.2 μM H-1152)
O=S(=O)(c1cccc2cnccc12)N1CCCNCC1 [Fasudil]	some colonies could be observed to attach and grow	–	–	–	–
O=c1[nH]ccc2c(S(=O)(=O)N3CCCNCC3)cccc12 [Hydroxyfasudil]	some colonies could be observed to attach and grow	–	–	–	–
Cc1cncc2cccc(S(=O)(=O)N3CCCNC[C@@H]3C)c12 [Surface H-1152, H-1152]	–	significant reduction in culture confluence	minimal	enhances attachment and growth	slightly enhanced
